Data as given in article PMC10060354, “Discovery of a small molecule ligand of FRS2 that inhibits invasion and tumor growth” (Cellular Oncology, 2022).

Experiments:
AGS = assay: CellTiter-Glo 3D cell viability; assay type: cell-based; details: Homo sapiens, full growth medium, 48 h
Procedure: (§1) Cell viability was determined using CellTiter-Glo® 2D or 3D cell viability assays (#G9242, #G9682, Promega). 500 cells/25 µl were seeded in flat bottom (#781,091, Greiner bio-one) or U-low adhesion (#4516, Corning) 384-well plate, 24 h prior to treatment. Increasing concentrations of compounds are deposited on cells using a HP Digital Drug Dispenser with DMSO total volume normalization. After 48 h, the CellTiter-Glo® 2D or 3D reagent was added (volume/volume) following manufacturer’s instructions. Plates were incubated at RT (room temperature) under agitation for 30 min and luminescence representing the number of viable cells was quantified with a Cytation 3 imaging reader (BioTek®). Experiments were performed independently three times with three technical replicas each.

HCT116 = assay: CellTiter-Glo 3D cell viability; assay type: cell-based; details: Homo sapiens, HCT-116, full growth medium, 48 h
Procedure: as §1

DAOY = assay: CellTiter-Glo 3D cell viability; assay type: cell-based; details: Homo sapiens, full growth medium, 48 h
Procedure: as §1

RT-112 = assay: CellTiter-Glo 3D cell viability; assay type: cell-based; details: Homo sapiens, RT-112, 48 h
Procedure: as §1

SKOV3 = assay: CellTiter-Glo 3D cell viability; assay type: cell-based; details: Homo sapiens, SK-OV-3, full growth medium, 48 h
Procedure: as §1

M059K = assay: CellTiter-Glo 3D cell viability; assay type: cell-based; details: Homo sapiens, full growth medium, 48 h
Procedure: as §1

[1] = Multi-dose MTD with plasma exposure; assay type: in vivo
Procedure: […]. […] Body weights were recorded once daily for 8 days. […] In addition, plasma samples were collected at 0.5, 1, 2 and 5.3 h(s) after the second dose on Day 4 (150 mg/kg, PO; bid × 5 group) and at 0.5, 1, 2 and 6 h(s) after the final dose on Day 5 (200 mg/kg, PO; qd × 5 group). The exposure levels (ng/mL) of 7 in plasma samples were then determined by LC–MS/MS. AUClast was calculated from the area under the plasma concentration–time curve from time zero to time of last measurable concentration.

DAOY FRS2-FLAG cells = assay: SIA, bFGF-induced collagen I invasion in FRS2-FLAG overexpressing cells; assay type: cell-based; details: Homo sapiens
Procedure: 1000—2500 cells/well in 100 μl were seeded in 96 well Corning® Spheroid microplate (CLS4520, Sigma-Aldrich) or in cell-repellent 96 well microplate (650,790, Greiner Bio-one). SIA and analysis was performed as described before. In brief: After spheroid formation (24 – 72 h after seeding), 70 µl medium was removed and replaced with the collagen mixture (2.5 mg/ml Pure Col Collagen I (Advanced Biomatrix)), DMEM 1x (from 10 × stock, Sigma, D2429) and 0.4% Sodium bicarbonate (Sigma, S8761)), resulting in a final collagen concentration of 1.75 mg/ml. Embedded spheroids were stimulated with bFGF (100 ng/ml if not otherwise stated), HGF (30 ng /ml) or EGF (20 ng/ml) and distance of invaded cells quantified 24 – 48 h after embedding. Compounds and BGJ398 were added in Dimethylsulfoxid (DMSO) and corresponding DMSO concentrations were used in control samples.
Lentiviral construct pLV[Exp]-hPGK > hFRS2[NM_001278357.1](ns)*/3xFLAG:P2A:Puro was ordered from VectorBuilder (Santa Clara, CA, USA). A FLAG-tag ([…]) was fused to the C-terminus of FRS2. Lentiviral particles were produced by transfection of HEK-293 T cells with transfer plasmids, psPAX2 (#12,260, Addgene) and pCMV-VSV-G plasmid (#8454, Addgene) in a ratio of 5:3:2 using polyethlenimine (24,765–2. Polysciences). Virus supernatant was harvested 30 h post transfection and filtered. […]

SKOV3 flank tumors = assay: Anti-tumor activity, SKOV3 flank xenograft model; assay type: in vivo, mice; details: 200 mg/kg PO once per day
Procedure: SKOV3 model: SKOV3 cells were cultured in McCoy´s 5A (26,600–023, ThermoFisher) media (10%FCS) until P7. Freshly isolated cells (1 × 10^6) with a viability of 98% were subcutaneously transplanted to left flank of 8-week-old female mice in PBS/Matrigel (1:1). […] Tumor diameters were determined by calliper measurements 2 × weekly, body weight (BW) was measured as parameter for tolerability 2 × weekly. For assessing significance of differences between treatments at the individual timepoints, a two-way ANOVA analysis with Turkey’s multiple comparison test was performed.

O=[N+]([O-])c1c(Cl)cc(O)c2c1C1C=CCC1C(c1ccc(Cl)cc1)N2 (centres unmarked) [Compound 7]
IC50 (AGS): 3.35 µM | IC50 (HCT116): 4.56 µM | IC50 (DAOY): 6.56 µM | IC50 (RT-112): 12.3 µM | IC50 (SKOV3): 9.46 µM | IC50 (M059K): 15.2 µM | additional body weight loss, days 5-8 ([1]; 200 mg/kg daily for 5 days): 14.6% | body weight loss, days 1-5 ([1]; 200 mg/kg daily for 5 days): 10% | multi-dose clinical signs (result in words) ([1]; 200 mg/kg daily for 5 days): induced vocalization, hunchback and decrease in touch response, abdominal and limb tone and low limb post | plasma concentration reached, multi-dose ([1]; 200 mg/kg once daily for 5 days, day five, for at least six h after administration): 20 µM | multi-dose mortality (result in words) ([1]; mouse, in vivo): No mortality was noted | IC50 (DAOY FRS2-FLAG cells): 4.16 µM | mice with less than average control tumor growth during treatment (SKOV3 flank tumors): six out of the seven | tumor growth (result in words) (SKOV3 flank tumors): significant reduction in tumor growth between d55 and d80
